Data taken from patent US20250296971A1, “GASTRIC INHIBITORY PEPTIDE RECEPTOR LIGANDS” (priority 2021, published 2025).
Where two headings read alike, the source gives them in different places. *1 amine or outer side, *2 acyl side, *3 side chain or, on linkers, in order; H or OH if unused. Where a SMILES comes first, the peptide text is derived from it. Bridges are numbered along the chain shown (N, C = ends). Side-chain parts run from the residue outwards. [ ]: non-standard residue; d: D form. The star is where a group is joined. X5 = NC(=O)[C@H](CCCCNC(=O)CN1CCN(CC(=O)O)CCN(CC(=O)O)CCN(CC(=O)O)CC1)NC(=O)CCC(=O)NCCCOCCOCCOCCCN*; X13 = O=C(CN1CCN2CCN3CCN(CC1)CC(=O)[O][Lu]([O]C(=O)C2)[O]C(=O)C3)NCCCOCCOCCOCCCN*; X3 = O=C(O)CN1CCN(CC(=O)O)CCN(CC(=O)NCCCOCCOCCOCCCN*)CCN(CC(=O)O)CC1; NH(1-deoxy-D-glucityl) = OC[C@@H](O)[C@@H](O)[C@H](O)[C@@H](O)CN*; Pro(trans-4-NH2) = O=C([C@@H]1C[C@@H](N[*:3])CN1[*:1])[*:2]; DOTA = O=C(O)CN1CCN(CC(=O)O)CCN(CC(=O)*)CCN(CC(=O)O)CC1; Trp(5-Cl) = N[C@@H](Cc1c[nH]c2ccc(Cl)cc12)C(=O)O; Pyridine(2,6-diCH2) = c1cc(C[*:1])nc(C[*:2])c1; Trp(6-F) = N[C@@H](Cc1c[nH]c2cc(F)ccc12)C(=O)O; Pro(4R-NH2) = N[C@H]1CN[C@H](C(=O)O)C1; mXylylene = c1cc(C[*:1])cc(C[*:2])c1; Glutaryl = O=C(CCCC(=O)[*:2])[*:1]; X7 = c1cc(CSCCN[*:2])cc(C[*:1])c1; Hyp = O=C(O)[C@@H]1C[C@@H](O)CN1; X1 = O=C(CN1CCC(N[*:1])CC1)[*:2]; Suc = O=C(CCC(=O)[*:2])[*:1]; Thz = O=C(O)[C@@H]1CSCN1; Api = NC1(C(=O)O)CCNCC1; Thp = NC1(C(=O)O)CCOCC1; Aib = CC(C)(N)C(=O)O; Sar = CNCC(=O)O

Target: T1, GIPR (CHO-K1-hGIPR cells) (Homo sapiens, UniProt P48546)
T1 construct: host or cells: CHO-K1
T1 sequence (P48546 22-466): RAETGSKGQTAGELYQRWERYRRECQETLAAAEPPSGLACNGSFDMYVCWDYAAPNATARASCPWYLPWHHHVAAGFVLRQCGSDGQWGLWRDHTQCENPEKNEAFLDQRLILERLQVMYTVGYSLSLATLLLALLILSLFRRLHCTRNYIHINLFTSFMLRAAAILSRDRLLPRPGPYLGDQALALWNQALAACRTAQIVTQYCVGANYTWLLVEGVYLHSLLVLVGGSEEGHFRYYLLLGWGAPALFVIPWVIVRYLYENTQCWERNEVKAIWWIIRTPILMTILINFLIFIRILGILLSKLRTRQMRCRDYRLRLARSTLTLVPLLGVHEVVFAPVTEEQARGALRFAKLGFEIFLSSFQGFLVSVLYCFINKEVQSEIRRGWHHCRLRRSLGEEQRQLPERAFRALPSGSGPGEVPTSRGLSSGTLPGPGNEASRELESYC
Assay: FACS binding assay
Summary of the method: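 Steps: detach CHO-K1-hGIPR cells (Accutase); wash in PBS/1% FCS; adjust to 500.000 cells per mL; wash ice-cold; incubate APC-streptavidin 1 μg/mL, 30 min on ice; wash twice; acquire on flow cytometer; fit MFI-concentration data with a four-parameter logistic model.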

[1] = competition with 20 nM GIP-057, 4° C. for 1 hour, read-out: pIC50 Category (converted)
[2] = competition with 20 nM GIP-057, 4° C., 1 hour, read-out: pIC50 Category (converted)

CC[C@H](C)[C@@H]1NC(=O)[C@H](CC(C)C)NC(=O)[C@H](C)NC(=O)[C@@H](NC(=O)[C@H](CC(C)C)NC(=O)[C@H](CCC(=O)O)NC(=O)[C@@H]2CCCN2C(=O)[C@H](Cc2c[nH]c3ccccc23)NC(=O)[C@H](Cc2c[nH]c3ccccc23)NC(=O)[C@H](C)NC(=O)[C@H](Cc2ccc(O)cc2)NC(=O)[C@@H](N)CCSC)CSCc2cccc(c2)CSC[C@@H](C(N)=O)NC1=O [GIP-332] (H-MYAWWPELCALIC-NH2; linker 9-13 via mXylylene)
IC50 [1]: > 1000 nM

CC[C@H](C)[C@@H]1NC(=O)[C@H](CC(C)C)NC(=O)C2(CCN(C(=O)CN3CCN(CC(=O)O)CCN(CC(=O)O)CCN(CC(=O)O)CC3)CC2)NC(=O)[C@@H](NC(=O)[C@@H](CC(C)C)NC(=O)[C@H](CCC(=O)O)NC(=O)[C@@H]2C[C@@H](NC(=O)CN3CCN(CC(=O)O)CCN(CC(=O)O)CCN(CC(=O)O)CC3)CN2C(=O)[C@H](Cc2c[nH]c3ccc(Cl)cc23)NC(=O)[C@H](Cc2c[nH]c3ccccc23)NC(=O)[C@H](CC(=O)O)NC(=O)CCC(=O)NCCCOCCOCCOCCCNC(=O)CN2CCN(CC(=O)O)CCN(CC(=O)O)CCN(CC(=O)O)CC2)CSCc2cccc(n2)CSC[C@@H](C(=O)N[C@@H](CCCCNC(=O)CN2CCN(CC(=O)O)CCN(CC(=O)O)CCN(CC(=O)O)CC2)C(N)=O)NC1=O [GIP-056, DOTA-Ttds-Asp-Trp-5Clw-Tap(DOTA)-Glu-leu-[Cys(2Lut)-Apc(DOTA)-Leu-Ile-Cys]-Lys(DOTA)-NH2] ({X3-Suc}-DW[Trp(5-Cl)][Pro(trans-4-NH2)](DOTA)E[dL]C[Api](DOTA)LICK(DOTA)-NH2; linker 7-11 via Pyridine(2,6-diCH2))
IC50 [2]: < 10 nM

CC(=O)N[C@@H](CC(=O)O)C(=O)N[C@@H](Cc1c[nH]c2ccccc12)C(=O)N[C@@H](Cc1c[nH]c2ccc(Cl)cc12)C(=O)N1C[C@H](O)C[C@H]1C(=O)N[C@@H](CCC(=O)O)C(=O)N[C@H](CC(C)C)C(=O)N[C@H]1CSCc2cccc(n2)CSC[C@@H](C(N)=O)NC(=O)[C@H](Cc2ccccc2)NC(=O)[C@H](CC(C)C)NC(=O)C2(CCN(C(=O)CN3CCN(CC(=O)O)CCN(CC(=O)O)CCN(CC(=O)O)CC3)CC2)NC1=O [GIP-393, Ac-Asp-Trp-5Clw-Hyp-Glu-leu-[Cys(2Lut)-Apc(DOTA)-Leu-Phe-Cys]-NH2] (Ac-DW[Trp(5-Cl)][Hyp]E[dL]C[Api](DOTA)LFC-NH2; linker 7-11 via Pyridine(2,6-diCH2))
IC50 [1]: 10 to 79.4 nM

CC[C@H](C)[C@@H]1NC(=O)[C@H](CC(C)C)NC(=O)C2(CCOCC2)NC(=O)[C@@H](NC(=O)[C@H](CC(C)C)NC(=O)[C@@H](CCC(=O)O)NC(=O)[C@@H]2C[C@@H](O)CN2C(=O)[C@H](Cc2c[nH]c3ccc(Cl)cc23)NC(=O)[C@H](Cc2c[nH]c3ccccc23)NC(=O)[C@H](CC(=O)O)NC(C)=O)CSCc2cccc(n2)CSC[C@@H](C(N)=O)NC1=O [GIP-223, Ac-Asp-Trp-5Clw-Eaz-Glu-leu-[Cys(2Lut)-Thp-Leu-Ile-Cys]-NH2] (Ac-DW[Trp(5-Cl)][Hyp][dE]LC[Thp]LIC-NH2; linker 7-11 via Pyridine(2,6-diCH2))
IC50 [2]: < 10 nM

CC[C@H](C)[C@@H]1NC(=O)[C@H](CC(C)C)NC(=O)C2(CCN(C(=O)CCCC(=O)NC[C@H](O)[C@@H](O)[C@H](O)[C@H](O)CO)CC2)NC(=O)[C@@H](NC(=O)[C@@H](CC(C)C)NC(=O)[C@H](CCC(=O)O)NC(=O)[C@@H]2C[C@@H](N)CN2C(=O)[C@H](Cc2c[nH]c3ccc(Cl)cc23)NC(=O)[C@H](Cc2c[nH]c3ccccc23)NC(=O)[C@H](CC(=O)O)NC(=O)[C@@H](CCC(=O)NC[C@H](O)[C@@H](O)[C@H](O)[C@H](O)CO)NC(=O)CN2CCN(CC(=O)O)CCN(CC(=O)O)CCN(CC(=O)O)CC2)CSCc2cccc(n2)CSC[C@@H](C(=O)NC2CCN(CC(=O)N[C@H](CCC(=O)NC[C@H](O)[C@@H](O)[C@H](O)[C@H](O)CO)C(N)=O)CC2)NC1=O [GIP-045, DOTA-glu(AGLU)-Asp-Trp-5Clw-Tap-Glu-leu-[Cys(2Lut)-Apc(AGLU-Glutar)-Leu-Ile-Cys]-APAc-glu(AGLU)-NH2] ({DOTA}-[dE](NH(1-deoxy-D-glucityl))DW[Trp(5-Cl)][Pro(4R-NH2)]E[dL]C[Api]([Glutaryl-NH(1-deoxy-D-glucityl)])LIC[X1][dE](NH(1-deoxy-D-glucityl))-NH2; linker 8-12 via Pyridine(2,6-diCH2))
IC50 [2]: < 10 nM

MeO2kDaPEGAc-Asp-Trp-5Clw-Hyp-Glu-leu-[Cys(2Lut)-Thp-Leu-Ile-Cys]-lys(DOTA)-NH2 [GIP-120]
pIC50 Category (competition with 20 nM GIP-057, 4° C., 1 hour): A (pIC50 values>8.0)

CC[C@H](C)[C@@H]1NC(=O)[C@H](CC(C)C)NC(=O)C2(CCOCC2)NC(=O)[C@@H](NC(=O)[C@@H](CC(C)C)NC(=O)[C@H](CCC(=O)O)NC(=O)[C@@H]2C[C@@H](NC(=O)CCCC(=O)NC[C@H](O)[C@@H](O)[C@H](O)[C@H](O)CO)CN2C(=O)[C@H](Cc2c[nH]c3ccc(Cl)cc23)NC(=O)[C@H](Cc2c[nH]c3ccccc23)NC(=O)[C@H](CC(=O)O)NC(C)=O)CSCc2cccc(n2)CSC[C@@H](C(N)=O)NC1=O [GIP-175, Ac-Asp-Trp-5Clw-Tap (AGLU-Glutar)-Glu-leu-[Cys(2Lut)-Thp-Leu-Ile-Cys]-NH2] (Ac-DW[Trp(5-Cl)][Pro(trans-4-NH2)]([Glutaryl-NH(1-deoxy-D-glucityl)])E[dL]C[Thp]LIC-NH2; linker 7-11 via Pyridine(2,6-diCH2))
IC50 [2]: < 10 nM

CC[C@H](C)[C@@H]1NC(=O)[C@H](CC(C)C)NC(=O)C(C)(C)NC(=O)[C@@H](NC(=O)[C@@H](CC(C)C)NC(=O)[C@H](CCC(=O)O)NC(=O)[C@@H]2CCCN2C(=O)[C@H](Cc2c[nH]c3cc(F)ccc23)NC(=O)[C@H](Cc2c[nH]c3ccccc23)NC(=O)[C@H](CC(=O)O)NC(C)=O)CSCc2cccc(c2)CSC[C@@H](C(=O)NCCCOCCOCCOCCCNC(=O)CCC(=O)N[C@@H](CCCCNC(=O)CN2CCN(CC(=O)O)CCN(CC(=O)O)CCN(CC(=O)O)CC2)C(N)=O)NC1=O [GIP-140, Ac-Asp-Trp-6Fw-Pro-Glu-leu-[Cys(3MeBn)-Aib-Leu-Ile-Cys]-Ttds-Lys(DOTA)-NH2] (Ac-DW[Trp(6-F)]PE[dL]C[Aib]LIC-X5; linker 7-11 via mXylylene)
IC50 [2]: 10 to 79.4 nM

CC[C@H](C)[C@@H]1NC(=O)[C@H](CC(C)C)NC(=O)C2(CCOCC2)NC(=O)[C@@H](NC(=O)[C@@H](CC(C)C)NC(=O)[C@H](CCC(=O)O)NC(=O)[C@@H]2CSCN2C(=O)[C@H](Cc2c[nH]c3ccc(Cl)cc23)NC(=O)[C@H](Cc2c[nH]c3ccccc23)NC(=O)[C@H](CC(=O)O)NC(C)=O)CSCc2cccc(n2)CSC[C@@H](C(N)=O)NC1=O [GIP-222, Ac-Asp-Trp-5Clw-Eaz-Glu-leu-[Cys(2Lut)-Thp-Leu-Ile-Cys]-NH2] (Ac-DW[Trp(5-Cl)][Thz]E[dL]C[Thp]LIC-NH2; linker 7-11 via Pyridine(2,6-diCH2))
IC50 [2]: < 10 nM

CC[C@H](C)[C@@H]1NC(=O)[C@H](CC(C)C)NC(=O)C(C)(C)NC(=O)[C@@H](NC(=O)[C@@H](CC(C)C)NC(=O)[C@H](CCC(=O)O)NC(=O)CN(C)C(=O)[C@H](Cc2c[nH]c3ccc(Cl)cc23)NC(=O)[C@H](Cc2c[nH]c3ccccc23)NC(=O)[C@H](CC(=O)O)NC(=O)CCC(=O)NCCCOCCOCCOCCCNC(=O)CN2CCN3CCN4CCN(CC2)CC(=O)[O][Lu]([O]C(=O)C3)[O]C(=O)C4)CSCc2cccc(c2)CSCCNC1=O [GIP-160, LuDOTA-Ttds-Asp-Trp-5Clw-Nmg-Glu-leu-[Cys(3MeBn)-Aib-Leu-Ile-AET]] ({X13-Suc}-DW[Trp(5-Cl)][Sar]E[dL]C[Aib]LI; linker 7-C via X7)
IC50 (pIC50 Category, competition with 20 nM GIP-057, 4° C., 1 hour): < 10 nM

CC[C@H](C)[C@@H]1NC(=O)[C@H](CC(C)C)NC(=O)C2(CCN(C(=O)CN3CCN(CC(=O)O)CCN(CC(=O)O)CCN(CC(=O)O)CC3)CC2)NC(=O)[C@@H](NC(=O)[C@@H](CC(C)C)NC(=O)[C@H](CCC(=O)O)NC(=O)[C@@H]2C[C@@H](N)CN2C(=O)[C@H](Cc2c[nH]c3ccc(Cl)cc23)NC(=O)[C@H](Cc2c[nH]c3ccccc23)NC(=O)[C@H](CC(=O)O)NC(=O)CCCC(=O)NC[C@H](O)[C@@H](O)[C@H](O)[C@H](O)CO)CSCc2cccc(n2)CSC[C@H](C(=O)NC2CCN(CC(=O)N[C@H](CCC(=O)NC[C@H](O)[C@@H](O)[C@H](O)[C@H](O)CO)C(N)=O)CC2)NC1=O [GIP-038, AGLU-Glutar-Asp-Trp-5Clw-Tap-Glu-leu-[Cys(2Lut)-Apc(DOTA)-Leu-Ile-cys]-APAc-glu(AGLU)-NH2] ({NH(1-deoxy-D-glucityl)-Glutaryl}-DW[Trp(5-Cl)][Pro(4R-NH2)]E[dL]C[Api](DOTA)LI[dC][X1][dE](NH(1-deoxy-D-glucityl))-NH2; linker 7-11 via Pyridine(2,6-diCH2))
IC50 [2]: < 10 nM
